Experimental data: patent publication US7582627B2, “3-aminoquinazolin-2,4-dione antibacterial agents” (Warner-Lambert Company, priority 2000, dated 2009)
Counter-ions that a name gives are not always drawn.

SMILES | melting point
COc1c(N2C[C@@H](C)[C@H](N)C2)c(F)cc2c(=O)n(N)c(=O)n(C3CC3)c12.Cl (relative stereo) | 209 °C
Cl.NCC1CCN(c2c(Cl)cc3c(=O)n(N)c(=O)n(C4CC4)c3c2Cl)C1 (stereo not shown) | 147 to 149 °C
CC(C)NCC1CCN(c2c(F)cc3c(=O)n(N)c(=O)n(C4CC4)c3c2Cl)C1.Cl (stereo not shown) | 125 to 127 °C
Cc1c(N2CCC(CN)C2)c(F)cc2c(=O)n(N)c(=O)n(C3CC3)c12.O=C(O)C(F)(F)F (stereo not shown) | 82 to 84 °C
COC1CN(c2c(F)cc3c(=O)n(N)c(=O)n(C4CC4)c3c2C)CC1N.Cl (stereo not shown) | > 250 °C
CC(C)(N)[C@@H]1CCN(c2c(F)cc3c(=O)n(N)c(=O)n(C4CC4)c3c2Cl)C1.Cl | 117 to 120 °C
NC1CCN(c2c(Cl)cc3c(=O)n(N)c(=O)n(C4CC4)c3c2F)C1.O=C(O)C(F)(F)F (stereo not shown) | 135 to 137 °C
Nn1c(=O)c2cc(F)c(N3CCC(=NO)C3)c(Cl)c2n(C2CC2)c1=O [Compound 65, 3-Amino-8-chloro-1-cyclopropyl-6-fluoro-7-(3-hydroxyimino-pyrrolidin-1-yl)-1H-quinazoline-2,4-dione] | 147 to 149 °C
Nc1c(F)c(N2CC[C@H](N)C2)c(F)c2c1c(=O)n(N)c(=O)n2C1CC1 (as salt: hydrochloride) [Compound 11, 7-((S)-3-Aminopyrrolidin-1-yl)-1-cyclopropyl-3,5-diamino-6,8-difluoro-1H-quinazoline-2,4-dione hydrochloride] | 215 to 218 °C (dec.)
CC1CCc2c(N3CC[C@H](N)C3)c(F)cc3c(=O)n(N)c(=O)n1c23 (stereo partly shown) (as salt: hydrochloride) | 202 to 204 °C
Cc1c(N2CCCC2)c(F)cc2c(=O)n(N)c(=O)n(C3CC3)c12.Cl | 178 to 180 °C
Cc1c(N2CC[C@H]([C@H](C)N)C2)c(F)cc2c(=O)n(N)c(=O)n(C3CC3)c12.Cl | 192 to 194 °C
COc1c(N2CCCC(CN)C2)c(F)cc2c(=O)n(N)c(=O)n(C3CC3)c12.Cl (stereo not shown) | 201 °C
COc1c(N2C[C@@H](CN)[C@H](C(F)(F)F)C2)c(F)cc2c(=O)n(N)c(=O)n(C3CC3)c12.Cl (relative stereo) | 205 to 207 °C
COc1c(N2CC3CC3(CN)C2)c(F)cc2c(=O)n(N)c(=O)n(C3CC3)c12.Cl (stereo not shown) | 183 to 185 °C
Cc1c(N2CC3CCCCC3(CN)C2)c(F)cc2c(=O)n(N)c(=O)n(C3CC3)c12.Cl (stereo not shown) | > 250 °C
Cc1c(N2CC(C(C)N)C(C)(C)C2)c(F)cc2c(=O)n(N)c(=O)n(C3CC3)c12.Cl (stereo not shown) | 246 °C
COc1cc2c(=O)n(N)c(=O)n(C3CC3)c2c(F)c1N1CCC(N)C1.Cl (stereo not shown) | 208 to 210 °C
Cl.N[C@@H]1CN(c2c(F)cc3c(=O)n(N)c(=O)n(C4CC4)c3c2Cl)C[C@H]1c1ccc(O)cc1 (relative stereo) | > 200 °C
Cl.Nn1c(=O)c2cc(F)c(N3CCCC3)c(Cl)c2n(C2CC2)c1=O | 96 to 98 °C
CC1COc2c(N3CC[C@H](N)C3)c(F)cc3c(=O)n(N)c(=O)n1c23.Cl (stereo partly shown) | 202 to 204 °C
COc1c(N2CCC(N)C2)c(F)cc2c(=O)n(N)c(=O)n(C3CC3)c12.Cl (stereo not shown) | 216 to 218 °C
CC1COc2c(N3CC[C@@H]([C@H](C)N)C3)c(F)cc3c(=O)n(N)c(=O)n1c23.Cl (stereo partly shown) | 192 to 194 °C
COc1c(N2C[C@@H](CN)[C@H](C)C2)c(F)cc2c(=O)n(N)c(=O)n(C3CC3)c12.Cl (relative stereo) | 189 °C
Cc1c(F)c(N2CC[C@H]([C@@H](C)N)C2)cc2c1c(=O)n(N)c(=O)n2C1CC1.Cl | 245 to 247 °C
COc1c(N2CC(N)C(F)C2)c(F)cc2c(=O)n(N)c(=O)n(C3CC3)c12.Cl (stereo not shown) | > 250 °C

SMILES | melting point
Cc1c(N2C[C@@H](CN)[C@H](C)C2)c(F)cc2c(=O)n(N)c(=O)n(C3CC3)c12.Cl (relative stereo) | 220 °C
Cl.N#Cc1c(N2CCC(N)C2)c(F)cc2c(=O)n(N)c(=O)n(C3CC3)c12 (stereo not shown) | 277 °C
Cl.NCCC1CCN(c2c(F)cc3c(=O)n(N)c(=O)n(C4CC4)c3c2Cl)C1 (stereo not shown) | 158 to 160 °C
CS(=O)(=O)NCC1CCN(c2c(F)cc3c(=O)n(N)c(=O)n(C4CC4)c3c2Cl)C1.Cl (stereo not shown) | 109 to 112 °C
Cc1c(N2CCCC(CCN)C2)c(F)cc2c(=O)n(N)c(=O)n(C3CC3)c12.Cl (stereo not shown) | 200 °C
Cl.NC[C@@H]1CN(c2nc3c(cc2F)c(=O)n(N)c(=O)n3C2CC2)C[C@H]1C(F)(F)F (relative stereo) | 214 to 216 °C
COc1c(N2CCC(CN)C2)c(F)cc2c(=O)n(N)c(=O)n(C3CC3)c12.Cl (stereo not shown) | 180 to 182 °C
Cl.N[C@@H]1CN(c2c(F)cc3c(=O)n(N)c(=O)n(C4CC4)c3c2Cl)C[C@H]1C(F)(F)F (relative stereo) | 181 to 183 °C
Cl.NCC1(Cc2ccccc2)CCN(c2c(F)cc3c(=O)n(N)c(=O)n(C4CC4)c3c2Cl)C1 (stereo not shown) | 148 to 150 °C
Cc1c(N2CCC(N)(c3ccccc3)C2)c(F)cc2c(=O)n(N)c(=O)n(C3CC3)c12.Cl (stereo not shown) | 236 °C
Cc1c(N2CC(C(C)N)C3(CC3)C2)c(F)cc2c(=O)n(N)c(=O)n(C3CC3)c12.Cl (stereo not shown) | 178 to 180 °C
Cl.N[C@H]1CCN(c2nc3c(cc2F)c(=O)n(N)c(=O)n3C2CC2)C1 | 213 to 215 °C
Cc1c(N2CCC(C(C)(C)O)C2)c(F)cc2c(=O)n(N)c(=O)n(C3CC3)c12.Cl (stereo not shown) | 116 to 120 °C
COc1c(N2C[C@@H](CN)[C@@H](F)C2)c(F)cc2c(=O)n(N)c(=O)n(C3CC3)c12.Cl (relative stereo) | 169 to 179 °C
Cl.NCC1CCCN(c2c(F)cc3c(=O)n(N)c(=O)n(C4CC4)c3c2Cl)C1 (stereo not shown) | 131 to 133 °C
Cc1c(N2CC3CC3(CN)C2)c(F)cc2c(=O)n(N)c(=O)n(C3CC3)c12.Cl (stereo not shown) | 189 to 194 °C
CN[C@@H](C)[C@@H]1CCN(c2c(F)cc3c(=O)n(N)c(=O)n(C4CC4)c3c2C)C1.Cl | 153 to 155 °C
CCn1c(=O)n(N)c(=O)c2ccc(N3CC[C@H](N)C3)c(F)c21.Cl | 248 to 251 °C
Cc1c(N2CCC(N)C2)c(F)cc2c(=O)n(N)c(=O)n(C3CC3)c12.O=C(O)C(F)(F)F (stereo not shown) | 110 to 112 °C
COc1c(N2CC(C(C)N)C(C)(C)C2)c(F)cc2c(=O)n(N)c(=O)n(C3CC3)c12.Cl (stereo not shown) | 230 °C
Cl.Nn1c(=O)c2cc(F)c(N3CCC(CNCC(F)(F)F)C3)c(Cl)c2n(C2CC2)c1=O (stereo not shown) | 163 to 164 °C
Cc1c(N2CC3CCCNC3C2)c(F)cc2c(=O)n(N)c(=O)n(C3CC3)c12.Cl (stereo not shown) | 220 °C
COc1c(N2CC3CCCCC3(CN)C2)c(F)cc2c(=O)n(N)c(=O)n(C3CC3)c12.Cl (stereo not shown) | > 250 °C
NC(=O)C1CCCN(c2c(F)cc3c(=O)n(N)c(=O)n(C4CC4)c3c2Cl)C1 (stereo not shown) [Compound 58, 1-(3-Amino-8-chloro-1-cyclopropyl-6-fluoro-2,4-dioxo-1,2,3,4-tetrahydroquinazolin-7-yl)piperidine-3-carboxylic acid amide] | 141 to 144 °C
COC1(C(C)N)CCN(c2c(F)cc3c(=O)n(N)c(=O)n(C4CC4)c3c2C)C1.Cl (stereo not shown) | 190 to 192 °C
Cc1c(N2CC(CN)C3(CC3)C2)c(F)cc2c(=O)n(N)c(=O)n(C3CC3)c12.Cl (stereo not shown) | 167 °C
